Earlier results as cited in patent US20190100806A1, “MARKER FOR PREDICTING TREATMENT RESPONSE TO ANTI-CANCER AGENT IN SOLID CANCER PATIENTS” (DAEWOONG PHARMACEUTICAL CO., LTD., priority 2016, published 2019).

How the values were obtained:
[1] = system: Akt phosphorylation (Ser473); settings: single dose, mouse model xenografted with PC-3 cells
[2] = system: RAC serine/threonine-protein kinase (Akt) phosphorylation; settings: mouse models xenografted with human PTEN-deficient tumor cells
[3] = system: PC-3 (human prostate cancer) cells; settings: PC-3 cells, PTEN-deficient; read-out: median effective concentration (EC50)
[4] = system: HCC70 (human breast ductal carcinoma) cells; settings: PTEN-deficient, read-out: median effective concentration (EC50)

Cc1c(Cn2c(C)nc3c(C(=O)O)cc(N4CCOCC4)cc32)cccc1C(F)(F)F [GSK-2636771]
Akt phosphorylation (Ser473) [1]: reduce Akt phosphorylation (Ser473) | phosphorylation of Akt [2]: inhibits the phosphorylation of RAC serine/threonine-protein kinase (Akt) in a dose-dependent manner | EC50 [3]: 36 nM | EC50 [4]: 72 nM
